# Measured values published in publication PMC5540273, “Progress towards a public chemogenomic set for protein kinases and a call for contributions” (PLoS ONE, 2017).
# Target: CDK5 (Homo sapiens, UniProt Q00535)
# Experiment: KINOMEscan competition binding
# Details: read-out: %Inh CDK5
# CDK5, sequence (Q00535 whole entry): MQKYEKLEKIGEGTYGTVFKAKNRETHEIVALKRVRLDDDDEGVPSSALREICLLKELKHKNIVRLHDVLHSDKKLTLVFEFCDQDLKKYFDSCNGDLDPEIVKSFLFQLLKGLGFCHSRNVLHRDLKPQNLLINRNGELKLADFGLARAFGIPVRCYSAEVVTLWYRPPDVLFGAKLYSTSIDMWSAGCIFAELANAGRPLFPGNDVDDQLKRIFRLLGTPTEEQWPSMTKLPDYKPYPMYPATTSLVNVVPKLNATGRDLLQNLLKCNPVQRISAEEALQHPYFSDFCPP
row,Structure (SMILES),inhibition at 1 µM
1,O=c1cc(N2CCOCC2)nc2n(Cc3cccc(Cl)c3Cl)c(C3CC3)nn12 [UNC10225469A],7%
2,Cn1cc(-c2cnc(N)c3c(-c4ccc5c(c4)CCN5C(=O)Cc4ccccc4)csc23)cn1 [UNC10225012A],2%
3,CS(=O)(=O)Cc1ccc(Nc2nccc(-c3c(-c4cccc(NC(=O)C5CCCCC5)c4)nn4ncccc34)n2)cc1 [UNC10225159A],4%
4,COc1cccc(OC)c1C(=O)Nc1cccc(-c2nn3ccccc3c2-c2ccnc(Nc3cccc(F)c3)n2)c1 [UNC10225310A],21%
5,Cc1ccc(NC(=O)Nc2cccc(C(F)(F)F)c2)cc1 [UNC10225187A],0%

# Target: FLT1 (Homo sapiens, UniProt P17948)
# Sequence (P17948 27-1338): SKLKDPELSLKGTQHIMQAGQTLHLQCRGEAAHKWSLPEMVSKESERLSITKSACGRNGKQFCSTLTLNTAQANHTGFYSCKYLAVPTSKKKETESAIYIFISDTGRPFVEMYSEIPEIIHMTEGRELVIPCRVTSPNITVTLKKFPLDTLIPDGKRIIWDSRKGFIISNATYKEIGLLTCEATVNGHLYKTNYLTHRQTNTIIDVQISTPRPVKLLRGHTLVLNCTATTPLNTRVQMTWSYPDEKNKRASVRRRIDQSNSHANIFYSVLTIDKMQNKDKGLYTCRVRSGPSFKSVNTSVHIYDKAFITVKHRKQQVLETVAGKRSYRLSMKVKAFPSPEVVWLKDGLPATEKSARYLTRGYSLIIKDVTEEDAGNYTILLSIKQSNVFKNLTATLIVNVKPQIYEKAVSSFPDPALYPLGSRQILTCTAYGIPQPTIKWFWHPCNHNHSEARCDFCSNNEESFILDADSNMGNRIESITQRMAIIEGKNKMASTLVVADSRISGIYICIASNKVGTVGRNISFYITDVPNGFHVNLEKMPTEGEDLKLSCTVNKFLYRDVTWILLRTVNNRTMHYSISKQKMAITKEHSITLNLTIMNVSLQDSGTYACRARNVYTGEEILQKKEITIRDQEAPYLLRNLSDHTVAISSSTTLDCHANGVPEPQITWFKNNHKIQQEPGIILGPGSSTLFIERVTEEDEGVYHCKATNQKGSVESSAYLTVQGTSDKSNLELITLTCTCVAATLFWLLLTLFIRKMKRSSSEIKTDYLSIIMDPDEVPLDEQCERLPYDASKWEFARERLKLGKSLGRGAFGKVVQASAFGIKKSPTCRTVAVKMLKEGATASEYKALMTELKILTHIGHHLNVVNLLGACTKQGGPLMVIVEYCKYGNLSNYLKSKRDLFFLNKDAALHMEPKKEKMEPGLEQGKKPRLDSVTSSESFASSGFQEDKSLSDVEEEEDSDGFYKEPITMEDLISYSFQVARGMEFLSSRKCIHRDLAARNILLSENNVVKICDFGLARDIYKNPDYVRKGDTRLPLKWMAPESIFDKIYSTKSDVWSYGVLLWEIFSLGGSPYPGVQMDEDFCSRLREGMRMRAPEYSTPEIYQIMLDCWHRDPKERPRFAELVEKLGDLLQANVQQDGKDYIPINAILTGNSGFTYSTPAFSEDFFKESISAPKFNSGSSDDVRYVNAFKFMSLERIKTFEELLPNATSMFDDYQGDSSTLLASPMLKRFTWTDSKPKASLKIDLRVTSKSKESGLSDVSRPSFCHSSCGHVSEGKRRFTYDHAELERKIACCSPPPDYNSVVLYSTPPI
# Experiment: KINOMEscan competition binding
# Details: read-out: %Inh FLT1
row,Structure (SMILES),inhibition at 1 µM
1,O=c1cc(N2CCOCC2)nc2n(Cc3cccc(Cl)c3Cl)c(C3CC3)nn12 [UNC10225469A],6%
2,Cn1cc(-c2cnc(N)c3c(-c4ccc5c(c4)CCN5C(=O)Cc4ccccc4)csc23)cn1 [UNC10225012A],79%
3,CS(=O)(=O)Cc1ccc(Nc2nccc(-c3c(-c4cccc(NC(=O)C5CCCCC5)c4)nn4ncccc34)n2)cc1 [UNC10225159A],63%
4,COc1cccc(OC)c1C(=O)Nc1cccc(-c2nn3ccccc3c2-c2ccnc(Nc3cccc(F)c3)n2)c1 [UNC10225310A],32%
5,Cc1ccc(NC(=O)Nc2cccc(C(F)(F)F)c2)cc1 [UNC10225187A],23%

# Target: HCK (Homo sapiens, UniProt P08631)
# Sequence (P08631 whole entry): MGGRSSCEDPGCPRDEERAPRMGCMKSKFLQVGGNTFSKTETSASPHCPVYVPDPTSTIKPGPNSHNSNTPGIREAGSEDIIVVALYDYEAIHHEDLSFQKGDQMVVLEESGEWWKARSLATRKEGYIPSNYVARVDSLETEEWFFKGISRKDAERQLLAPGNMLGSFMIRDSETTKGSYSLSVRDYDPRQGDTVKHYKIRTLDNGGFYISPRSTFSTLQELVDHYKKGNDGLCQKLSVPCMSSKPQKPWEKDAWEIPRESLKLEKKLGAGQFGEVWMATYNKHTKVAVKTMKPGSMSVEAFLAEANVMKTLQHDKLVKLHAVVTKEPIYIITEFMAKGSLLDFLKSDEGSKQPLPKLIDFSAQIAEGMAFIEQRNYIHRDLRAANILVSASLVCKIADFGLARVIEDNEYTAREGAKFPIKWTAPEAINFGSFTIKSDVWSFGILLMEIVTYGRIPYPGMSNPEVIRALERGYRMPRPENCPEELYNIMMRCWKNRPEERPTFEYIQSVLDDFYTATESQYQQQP
# Experiment: KINOMEscan competition binding
# Details: read-out: %Inh HCK
row,Structure (SMILES),inhibition at 1 µM
1,O=c1cc(N2CCOCC2)nc2n(Cc3cccc(Cl)c3Cl)c(C3CC3)nn12 [UNC10225469A],0%
2,Cn1cc(-c2cnc(N)c3c(-c4ccc5c(c4)CCN5C(=O)Cc4ccccc4)csc23)cn1 [UNC10225012A],86%
3,CS(=O)(=O)Cc1ccc(Nc2nccc(-c3c(-c4cccc(NC(=O)C5CCCCC5)c4)nn4ncccc34)n2)cc1 [UNC10225159A],1%
4,COc1cccc(OC)c1C(=O)Nc1cccc(-c2nn3ccccc3c2-c2ccnc(Nc3cccc(F)c3)n2)c1 [UNC10225310A],30%
5,Cc1ccc(NC(=O)Nc2cccc(C(F)(F)F)c2)cc1 [UNC10225187A],0%

# Target: T1, FLT3 (Homo sapiens, UniProt P36888)
# T1 sequence (P36888 27-993): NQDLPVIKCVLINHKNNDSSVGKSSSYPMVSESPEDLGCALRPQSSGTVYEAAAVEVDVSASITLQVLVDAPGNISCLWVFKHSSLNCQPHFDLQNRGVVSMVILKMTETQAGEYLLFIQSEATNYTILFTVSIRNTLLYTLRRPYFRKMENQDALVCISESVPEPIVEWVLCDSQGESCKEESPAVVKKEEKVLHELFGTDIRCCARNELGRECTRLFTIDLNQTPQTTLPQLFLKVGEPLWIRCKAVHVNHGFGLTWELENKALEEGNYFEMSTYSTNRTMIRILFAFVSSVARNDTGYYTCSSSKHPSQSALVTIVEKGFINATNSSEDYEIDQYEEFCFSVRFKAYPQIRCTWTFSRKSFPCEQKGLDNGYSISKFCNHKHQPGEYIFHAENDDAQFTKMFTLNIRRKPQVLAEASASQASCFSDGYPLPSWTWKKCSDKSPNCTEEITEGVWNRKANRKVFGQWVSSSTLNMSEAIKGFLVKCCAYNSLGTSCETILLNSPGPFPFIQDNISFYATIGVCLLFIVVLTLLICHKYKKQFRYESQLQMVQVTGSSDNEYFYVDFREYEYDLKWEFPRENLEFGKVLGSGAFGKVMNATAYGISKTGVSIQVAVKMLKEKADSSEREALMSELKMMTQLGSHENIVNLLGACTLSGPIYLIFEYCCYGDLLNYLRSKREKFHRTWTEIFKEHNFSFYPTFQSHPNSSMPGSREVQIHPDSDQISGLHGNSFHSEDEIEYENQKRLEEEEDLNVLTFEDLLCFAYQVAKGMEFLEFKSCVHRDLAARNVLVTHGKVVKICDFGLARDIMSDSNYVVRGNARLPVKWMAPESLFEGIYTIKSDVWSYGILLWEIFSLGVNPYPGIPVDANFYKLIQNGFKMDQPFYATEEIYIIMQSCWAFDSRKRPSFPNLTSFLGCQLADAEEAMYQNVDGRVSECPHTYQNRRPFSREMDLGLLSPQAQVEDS
# Experiment: KINOMEscan competition binding
# Details: read-out: %Inh FLT3
row,Structure (SMILES),inhibition at 1 µM
1,O=c1cc(N2CCOCC2)nc2n(Cc3cccc(Cl)c3Cl)c(C3CC3)nn12 [UNC10225469A],10%
2,Cn1cc(-c2cnc(N)c3c(-c4ccc5c(c4)CCN5C(=O)Cc4ccccc4)csc23)cn1 [UNC10225012A],99%
3,CS(=O)(=O)Cc1ccc(Nc2nccc(-c3c(-c4cccc(NC(=O)C5CCCCC5)c4)nn4ncccc34)n2)cc1 [UNC10225159A],88%
4,COc1cccc(OC)c1C(=O)Nc1cccc(-c2nn3ccccc3c2-c2ccnc(Nc3cccc(F)c3)n2)c1 [UNC10225310A],49%
5,Cc1ccc(NC(=O)Nc2cccc(C(F)(F)F)c2)cc1 [UNC10225187A],59%

# Target: FGFR1 (Homo sapiens, UniProt P11362)
# Sequence (P11362 22-822): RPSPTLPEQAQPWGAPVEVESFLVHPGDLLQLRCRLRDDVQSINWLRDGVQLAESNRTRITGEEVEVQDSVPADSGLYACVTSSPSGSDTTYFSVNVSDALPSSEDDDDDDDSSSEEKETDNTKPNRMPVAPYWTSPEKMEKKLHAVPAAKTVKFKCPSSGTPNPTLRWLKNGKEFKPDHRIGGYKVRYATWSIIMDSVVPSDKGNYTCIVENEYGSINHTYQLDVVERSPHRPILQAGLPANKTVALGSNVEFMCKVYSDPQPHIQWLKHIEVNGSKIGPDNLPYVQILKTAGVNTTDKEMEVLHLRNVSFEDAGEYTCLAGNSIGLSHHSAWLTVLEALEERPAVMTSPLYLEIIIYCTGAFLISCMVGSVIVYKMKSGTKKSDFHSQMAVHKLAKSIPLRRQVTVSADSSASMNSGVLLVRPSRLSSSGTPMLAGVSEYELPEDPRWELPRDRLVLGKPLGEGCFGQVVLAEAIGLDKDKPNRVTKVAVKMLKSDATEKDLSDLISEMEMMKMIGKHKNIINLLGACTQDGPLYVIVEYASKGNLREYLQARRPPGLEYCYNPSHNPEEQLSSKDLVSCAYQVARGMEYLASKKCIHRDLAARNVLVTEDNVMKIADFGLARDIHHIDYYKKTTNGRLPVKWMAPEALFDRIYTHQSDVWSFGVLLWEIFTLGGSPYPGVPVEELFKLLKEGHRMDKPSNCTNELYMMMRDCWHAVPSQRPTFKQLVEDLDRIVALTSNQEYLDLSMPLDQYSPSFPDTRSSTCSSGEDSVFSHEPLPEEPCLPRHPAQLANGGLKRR
# Experiment: KINOMEscan competition binding
# Details: read-out: %Inh FGFR1
row,Structure (SMILES),inhibition at 1 µM
1,O=c1cc(N2CCOCC2)nc2n(Cc3cccc(Cl)c3Cl)c(C3CC3)nn12 [UNC10225469A],0%
2,Cn1cc(-c2cnc(N)c3c(-c4ccc5c(c4)CCN5C(=O)Cc4ccccc4)csc23)cn1 [UNC10225012A],28%
3,CS(=O)(=O)Cc1ccc(Nc2nccc(-c3c(-c4cccc(NC(=O)C5CCCCC5)c4)nn4ncccc34)n2)cc1 [UNC10225159A],0%
4,COc1cccc(OC)c1C(=O)Nc1cccc(-c2nn3ccccc3c2-c2ccnc(Nc3cccc(F)c3)n2)c1 [UNC10225310A],11%
5,Cc1ccc(NC(=O)Nc2cccc(C(F)(F)F)c2)cc1 [UNC10225187A],1%

# Target: T2, DRAK1 (Homo sapiens, UniProt Q9UEE5)
# T2 sequence (Q9UEE5 1-414): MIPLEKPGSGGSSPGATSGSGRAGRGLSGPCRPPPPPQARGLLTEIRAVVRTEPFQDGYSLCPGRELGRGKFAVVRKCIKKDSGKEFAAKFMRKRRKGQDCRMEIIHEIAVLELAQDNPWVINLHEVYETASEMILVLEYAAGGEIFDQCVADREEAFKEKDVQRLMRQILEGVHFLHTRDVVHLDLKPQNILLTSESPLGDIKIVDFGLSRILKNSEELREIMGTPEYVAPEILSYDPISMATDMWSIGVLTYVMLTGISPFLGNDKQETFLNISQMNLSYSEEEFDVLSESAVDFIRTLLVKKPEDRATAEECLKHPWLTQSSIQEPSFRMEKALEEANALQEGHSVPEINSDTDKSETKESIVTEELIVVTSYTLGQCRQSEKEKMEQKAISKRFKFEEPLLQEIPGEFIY
# Experiment: KINOMEscan competition binding
# Details: read-out: %Inh DRAK1
row,Structure (SMILES),inhibition at 1 µM
1,O=c1cc(N2CCOCC2)nc2n(Cc3cccc(Cl)c3Cl)c(C3CC3)nn12 [UNC10225469A],11%
2,Cn1cc(-c2cnc(N)c3c(-c4ccc5c(c4)CCN5C(=O)Cc4ccccc4)csc23)cn1 [UNC10225012A],0%
3,CS(=O)(=O)Cc1ccc(Nc2nccc(-c3c(-c4cccc(NC(=O)C5CCCCC5)c4)nn4ncccc34)n2)cc1 [UNC10225159A],0%
4,COc1cccc(OC)c1C(=O)Nc1cccc(-c2nn3ccccc3c2-c2ccnc(Nc3cccc(F)c3)n2)c1 [UNC10225310A],12%
5,Cc1ccc(NC(=O)Nc2cccc(C(F)(F)F)c2)cc1 [UNC10225187A],15%

# Target: T3, IKK-beta (Homo sapiens, UniProt O14920)
# T3 sequence (O14920 1-756): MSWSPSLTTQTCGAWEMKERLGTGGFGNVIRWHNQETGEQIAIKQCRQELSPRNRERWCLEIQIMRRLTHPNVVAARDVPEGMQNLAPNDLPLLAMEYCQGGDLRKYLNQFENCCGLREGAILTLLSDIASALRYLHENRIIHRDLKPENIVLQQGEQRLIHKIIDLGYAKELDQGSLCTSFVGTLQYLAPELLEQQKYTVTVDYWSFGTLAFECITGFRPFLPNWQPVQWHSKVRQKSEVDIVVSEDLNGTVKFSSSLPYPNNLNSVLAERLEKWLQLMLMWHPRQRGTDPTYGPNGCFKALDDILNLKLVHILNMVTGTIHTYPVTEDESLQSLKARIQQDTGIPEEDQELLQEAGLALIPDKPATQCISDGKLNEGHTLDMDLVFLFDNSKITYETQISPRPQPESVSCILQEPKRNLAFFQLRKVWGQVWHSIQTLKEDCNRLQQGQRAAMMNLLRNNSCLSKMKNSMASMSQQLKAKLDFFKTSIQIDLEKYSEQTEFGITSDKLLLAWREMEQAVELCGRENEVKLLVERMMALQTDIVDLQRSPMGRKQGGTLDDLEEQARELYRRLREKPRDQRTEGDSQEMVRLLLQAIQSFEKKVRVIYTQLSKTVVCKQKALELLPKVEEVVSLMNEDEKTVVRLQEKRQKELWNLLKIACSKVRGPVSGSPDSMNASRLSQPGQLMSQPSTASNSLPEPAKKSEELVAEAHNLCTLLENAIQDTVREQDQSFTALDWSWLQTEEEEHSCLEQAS
# Experiment: KINOMEscan competition binding
# Details: read-out: %Inh IKK-beta
row,Structure (SMILES),inhibition at 1 µM
1,O=c1cc(N2CCOCC2)nc2n(Cc3cccc(Cl)c3Cl)c(C3CC3)nn12 [UNC10225469A],0%
2,Cn1cc(-c2cnc(N)c3c(-c4ccc5c(c4)CCN5C(=O)Cc4ccccc4)csc23)cn1 [UNC10225012A],0%
3,CS(=O)(=O)Cc1ccc(Nc2nccc(-c3c(-c4cccc(NC(=O)C5CCCCC5)c4)nn4ncccc34)n2)cc1 [UNC10225159A],12%
4,COc1cccc(OC)c1C(=O)Nc1cccc(-c2nn3ccccc3c2-c2ccnc(Nc3cccc(F)c3)n2)c1 [UNC10225310A],0%
5,Cc1ccc(NC(=O)Nc2cccc(C(F)(F)F)c2)cc1 [UNC10225187A],0%

# Target: DAPK3 (Homo sapiens, UniProt O43293)
# Sequence (O43293 whole entry): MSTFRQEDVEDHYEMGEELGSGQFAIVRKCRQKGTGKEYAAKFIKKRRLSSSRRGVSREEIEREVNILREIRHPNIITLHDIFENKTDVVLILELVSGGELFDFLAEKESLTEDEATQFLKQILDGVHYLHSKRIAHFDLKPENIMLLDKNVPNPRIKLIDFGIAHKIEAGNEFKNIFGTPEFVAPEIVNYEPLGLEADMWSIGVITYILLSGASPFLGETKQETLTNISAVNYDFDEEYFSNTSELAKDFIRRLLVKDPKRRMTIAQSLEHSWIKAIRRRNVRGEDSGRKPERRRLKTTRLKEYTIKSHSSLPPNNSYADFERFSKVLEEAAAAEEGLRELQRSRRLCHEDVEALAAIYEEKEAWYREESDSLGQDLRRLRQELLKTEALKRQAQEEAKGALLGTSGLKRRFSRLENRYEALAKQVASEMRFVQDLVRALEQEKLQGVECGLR
# Experiment: KINOMEscan competition binding
# Details: read-out: %Inh DAPK3
row,Structure (SMILES),inhibition at 1 µM
1,O=c1cc(N2CCOCC2)nc2n(Cc3cccc(Cl)c3Cl)c(C3CC3)nn12 [UNC10225469A],6%
2,Cn1cc(-c2cnc(N)c3c(-c4ccc5c(c4)CCN5C(=O)Cc4ccccc4)csc23)cn1 [UNC10225012A],7%
3,CS(=O)(=O)Cc1ccc(Nc2nccc(-c3c(-c4cccc(NC(=O)C5CCCCC5)c4)nn4ncccc34)n2)cc1 [UNC10225159A],0%
4,COc1cccc(OC)c1C(=O)Nc1cccc(-c2nn3ccccc3c2-c2ccnc(Nc3cccc(F)c3)n2)c1 [UNC10225310A],0%
5,Cc1ccc(NC(=O)Nc2cccc(C(F)(F)F)c2)cc1 [UNC10225187A],24%
